Assay results from US12023333B2, “Phenyl-sulfamoyl.benzoyc acids as ERAP1 modulators” (GREY WOLF THERAPEUTICS LIMITED, priority 2019, dated 2024).
pIC50: −log10 of the molar value.

What follows are molecules tested against T1, Purified ERAP1(37-941)-10His (ERAP1) (Homo sapiens, UniProt Q9NZ08) (assay: ERAP1 mediated hydrolysis of an amide substrate measured in a biochemical system (10-mer decapeptide substrate)). Settings: 10-mer substrate, 23° C. for 1 h, excitation 279 nm and emission 355 nm; read-out: IC50 vs Decapeptide WRVYEKC(Dnp)ALK-acid (where Dnp is Dinitrophenyl maleimide) (10-mer).
T1 construct: Purified ERAP1(37-941)-10His (ERAP1); 10His (C)
T1 sequence (Q9NZ08 37-941): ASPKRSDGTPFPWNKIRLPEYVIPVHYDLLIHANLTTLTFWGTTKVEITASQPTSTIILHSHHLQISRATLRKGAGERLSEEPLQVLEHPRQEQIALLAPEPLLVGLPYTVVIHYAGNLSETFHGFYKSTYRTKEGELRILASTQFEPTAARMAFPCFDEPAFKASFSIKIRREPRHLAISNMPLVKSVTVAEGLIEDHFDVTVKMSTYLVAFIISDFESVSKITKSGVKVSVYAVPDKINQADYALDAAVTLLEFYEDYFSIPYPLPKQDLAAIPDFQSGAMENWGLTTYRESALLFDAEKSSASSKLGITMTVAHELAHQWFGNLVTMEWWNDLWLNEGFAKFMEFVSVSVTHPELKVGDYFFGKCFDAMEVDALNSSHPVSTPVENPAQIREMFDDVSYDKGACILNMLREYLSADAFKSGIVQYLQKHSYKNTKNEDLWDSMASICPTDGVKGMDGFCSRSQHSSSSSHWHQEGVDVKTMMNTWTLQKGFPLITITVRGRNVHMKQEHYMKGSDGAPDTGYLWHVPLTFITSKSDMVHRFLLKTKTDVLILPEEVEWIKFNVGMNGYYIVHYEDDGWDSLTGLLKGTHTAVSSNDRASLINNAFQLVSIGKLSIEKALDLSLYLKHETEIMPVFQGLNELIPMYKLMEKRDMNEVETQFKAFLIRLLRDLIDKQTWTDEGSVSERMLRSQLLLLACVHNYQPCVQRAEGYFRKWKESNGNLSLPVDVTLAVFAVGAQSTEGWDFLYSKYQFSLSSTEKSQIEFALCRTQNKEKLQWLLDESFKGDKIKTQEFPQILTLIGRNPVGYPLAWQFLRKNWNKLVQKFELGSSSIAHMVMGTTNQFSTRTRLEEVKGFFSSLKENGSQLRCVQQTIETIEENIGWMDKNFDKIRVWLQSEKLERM
Experimental: Biological Assay 1: ERAP1 Mediated Hydrolysis of an Amide Substrate Measured in a Biochemical System
1× Assay buffer (AB): 25 mM Bis-tris propane, 0.05% w/v Hydroxypropylmethylcellulose pH 7.75 made with Optima grade water
Decapeptide WRVYEKC(Dnp)ALK-acid (where Dnp is Dinitrophenyl maleimide) (10-mer) L-Leucine 7-amido-4-methylcoumarin (L-AMC)
12.5 μL ERAP1 enzyme in 1×AB was combined with 250 nL test compound in DMSO. 12.5 μL of either 240 μM L-AMC in 1×AB or 100 μM 10-mer in 1×AB was added to the reaction and incubated at 23° C. for 1 h. For detection, plates were read at excitation 365 nm and emission 442 nm (L-AMC) or excitation 279 nm and emission 355 nm (10-mer). Compound IC50 was determined using a 4 parameter equation.
For `CCc1ccc(C(=O)O)cc1S(=O)(=O)Nc1cc(C(F)(F)F)ccc1-c1ccccn1` [Example 37, 4-ethyl-3-(N-(2-(pyridin-2-yl)-5-(trifluoromethyl)phenyl)sulfamoyl)benzoic acid], the pIC50 was > 6.30.
With `CCc1ccc(C(=O)O)cc1S(=O)(=O)Nc1cc(C#N)ccc1-c1ccccn1` [Example 38, 3-(N-(5-cyano-2-(pyridin-2-yl)phenyl)sulfamoyl)-4-ethylbenzoic acid] the pIC50 was > 6.30.
In the case of `CCc1ccc(C(=O)O)cc1S(=O)(=O)Nc1cc(S(C)(=O)=O)ccc1-c1cccc(C#N)c1` [Example 39, 3-(N-(3′-cyano-4-(methylsulfonyl)-[1,1′-biphenyl]-2-yl)sulfamoyl)-4-ethylbenzoic acid], the pIC50 was > 6.30.
`CCc1ccc(C(=O)O)cc1S(=O)(=O)Nc1cc(C#N)ccc1-c1ccccc1` [Example 40, 3-(N-(4-cyano-[1,1′-biphenyl]-2-yl)sulfamoyl)-4-ethylbenzoic acid] was tested, and the pIC50 was > 6.30.
For `CCc1ccc(C(=O)O)cc1S(=O)(=O)Nc1cc(C#N)ccc1-c1cccc(F)c1` [Example 41], the pIC50 was > 6.30.
`CCc1ccc(C(=O)O)cc1S(=O)(=O)Nc1cc(C#N)ccc1-c1cccc(C#N)c1` [Example 42, 3-(N-(3′,4-dicyano-[1,1′-biphenyl]-2-yl)sulfamoyl)-4-ethylbenzoic acid] was tested, and the pIC50 was > 6.30.
`CCc1ccc(C(=O)O)cc1S(=O)(=O)Nc1cc(C#N)ccc1-c1cccs1` [Example 43, 3-(N-(5-cyano-2-(thiophen-2-yl)phenyl)sulfamoyl)-4-ethylbenzoic acid] was tested, and the pIC50 was > 6.30.
In the case of `COc1ccc(C(=O)O)cc1S(=O)(=O)Nc1cc(S(C)(=O)=O)ccc1-c1ccccn1` [Example 44, 4-methoxy-3-(N-(5-(methylsulfonyl)-2-(pyridin-2-yl)phenyl)sulfamoyl)benzoic acid], the pIC50 was > 6.30.
`COc1ccc(C(=O)O)cc1S(=O)(=O)Nc1cc(C#N)ccc1-c1ccccn1` [Example 45, 3-(N-(5-cyano-2-(pyridin-2-yl)phenyl)sulfamoyl)-4-methoxybenzoic acid] was tested, and the pIC50 was > 6.30.
`COc1ccc(C(=O)O)cc1S(=O)(=O)Nc1cc(C(F)(F)F)ccc1-c1cccc(Cl)c1` [Example 46, 3-(N-(3′-chloro-4-(trifluoromethyl)-[1,1′-biphenyl]-2-yl)sulfamoyl)-4-methoxybenzoic acid] was tested, and the pIC50 was > 6.30.
`COc1ccc(C(=O)O)cc1S(=O)(=O)Nc1cc(C(F)(F)F)ccc1-c1ccc(C)cc1` [Example 47, 4-methoxy-3-(N-(4′-methyl-4-(trifluoromethyl)-[1,1′-biphenyl]-2-yl)sulfamoyl)benzoic acid] was tested, and the pIC50 was < 5.30.
With `COc1ccc(-c2ccc(C(F)(F)F)cc2NS(=O)(=O)c2cc(C(=O)O)ccc2OC)cc1` [Example 48, 4-methoxy-3-(N-(4′-methoxy-4-(trifluoromethyl)-[1,1′-biphenyl]-2-yl)sulfamoyl)benzoic acid] the pIC50 was < 5.30.
`COc1ccc(C(=O)O)cc1S(=O)(=O)Nc1cc(C(F)(F)F)ccc1-c1ccc(Cl)cc1` [Example 49, 3-(N-(4′-chloro-4-(trifluoromethyl)-[1,1′-biphenyl]-2-yl)sulfamoyl)-4-methoxybenzoic acid] was tested, and the pIC50 was > 6.30.
For `CCc1ccc(C(=O)O)cc1S(=O)(=O)Nc1cc(C(F)(F)F)ccc1-n1ccnc1` [Example 50, 3-(N-(2-(imidazol-1-yl)-5-(trifluoromethyl)phenyl)sulfamoyl)-4-ethylbenzoic acid], the pIC50 was > 6.30.
`COc1ccc(C(=O)O)cc1S(=O)(=O)Nc1cc(C(F)(F)F)ccc1-c1ccccc1C(C)C` [Example 51, 3-(N-(2′-isopropyl-4-(trifluoromethyl)-[1,1′-biphenyl]-2-yl)sulfamoyl)-4-methoxybenzoic acid] was tested, and the pIC50 was > 5.30.
For `CCc1ccc(C(=O)O)cc1S(=O)(=O)Nc1cc(-n2cnnn2)ccc1-c1ccccc1` [Example 52, 3-(N-(4-(tetrazol-1-yl)-[1,1′-biphenyl]-2-yl)sulfamoyl)-4-ethylbenzoic acid], the pIC50 was > 6.30.
With `CCc1ccc(C(=O)O)cc1S(=O)(=O)Nc1cc(-n2cnnn2)ccc1-c1cccc(F)c1` [Example 53, 4-ethyl-3-(N-(3′-fluoro-4-(tetrazol-1-yl)-[1,1′-biphenyl]-2-yl)sulfamoyl) benzoic acid] the pIC50 was > 6.30.
